Like-named read-outs stand apart in the source and are kept apart here.
Experiments:
GLP-1R = GLP-1R (Homo sapiens, UniProt P43220); experiment: GLP-1R activation: cAMP increase in CHO cells stably expressing GLP-1R; assay type: cell-based; conditions: read-out: EC50
[1] = Microsomal stability, human liver microsomes (predicted hepatic clearance); conditions: predicted from in vitro microsomal stability data
[2] = cAMP increase, CHO cells stably expressing GLP-1R, 10 point dose response, 30 minutes incubation

Chain of GLP-1R (P43220 24-463): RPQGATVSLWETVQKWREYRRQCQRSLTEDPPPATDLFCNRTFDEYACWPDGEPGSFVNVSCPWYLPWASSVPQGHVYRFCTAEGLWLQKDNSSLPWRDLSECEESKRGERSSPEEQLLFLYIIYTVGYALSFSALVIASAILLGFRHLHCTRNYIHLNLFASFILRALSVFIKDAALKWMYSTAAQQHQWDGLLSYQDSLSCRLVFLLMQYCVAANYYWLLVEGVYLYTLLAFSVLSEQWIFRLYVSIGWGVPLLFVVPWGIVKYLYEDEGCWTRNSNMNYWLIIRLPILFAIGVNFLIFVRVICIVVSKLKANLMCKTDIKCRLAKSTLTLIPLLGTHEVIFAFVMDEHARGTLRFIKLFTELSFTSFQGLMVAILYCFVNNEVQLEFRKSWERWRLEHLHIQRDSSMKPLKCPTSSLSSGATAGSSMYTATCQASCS

Row | Structure (SMILES) | EC50 (GLP-1R; [2]) | Predicted Hepatic Clearance (Pred. Cl.) [1] | EC50 (GLP-1R)
1 | N#Cc1ccc(COc2ccnc(-c3cc(F)c(Cc4nc5ccc(C(=O)O)cc5n4C[C@@H]4CCO4)cc3F)n2)c(F)c1 [Example 451, (S)-2-(4-(4-((4-cyano-2-fluorobenzyl)oxy)pyrimidin-2-yl)-2,5-difluorobenzyl)-1-(oxetan-2-ylmethyl)-1H-benzo[d]imidazole-6-carboxylic acid] | 0.16 nM | 4.83 mL/min/kg | 
2 | CCn1cncc1Cn1c(Cc2ccc(-c3cccc(OCc4ccc(C#N)cc4F)n3)c(F)c2)nc2c(F)cc(C(=O)O)cc21 [Example 452, 2-(4-(6-((4-cyano-2-fluorobenzyl)oxy)pyridin-2-yl)-3-fluorobenzyl)-1-((1-ethyl-1H-imidazol-5-yl)methyl)-4-fluoro-1H-benzo[d]imidazole-6-carboxylic acid] | 0.16 nM | 7.17 mL/min/kg | 
3 | CC(=O)N1CCC[C@H]1Cn1c(Cc2ccc(-c3cccc(OCc4ccc(C#N)cc4F)n3)cc2F)nc2ccc(C(=O)O)cc21 [Example 453, (S)-1-((1-acetylpyrrolidin-2-yl)methyl)-2-(4-(6-((4-cyano-2-fluorobenzyl)oxy)pyridin-2-yl)-2-fluorobenzyl)-1H-benzo[d]imidazole-6-carboxylic acid] |  | 3.83 mL/min/kg | 40.3 nM
4 | N#Cc1ccc(COc2cccc(-c3ccc(Cc4nc5ccc(C(=O)O)cc5n4Cc4cscn4)c(F)c3)n2)c(F)c1 [Example 454, 2-(4-(6-((4-cyano-2-fluorobenzyl)oxy)pyridin-2-yl)-2-fluorobenzyl)-1-(thiazol-4-ylmethyl)-1H-benzo[d]imidazole-6-carboxylic acid] | 5.53 nM | 4.67 mL/min/kg | 
5 | N#Cc1ccc(COc2cccc(-c3ccc(Cc4nc5c(F)cc(C(=O)O)cc5n4C[C@@H]4CCO4)c(F)c3)n2)c(F)c1 [Example 455, (S)-2-(4-(6-((4-cyano-2-fluorobenzyl)oxy)pyridin-2-yl)-2-fluorobenzyl)-4-fluoro-1-(oxetan-2-ylmethyl)-1H-benzo[d]imidazole-6-carboxylic acid] | 1.87 nM | <1.83 mL/min/kg | 
6 | N#Cc1ccc(COc2cccc(-c3ccc(Cc4nc5ccc(C(=O)O)cc5n4CC4(n5ccnn5)CC4)cc3F)n2)c(F)c1 [Example 457, 1-((1-(1H-1,2,3-triazol-1-yl)cyclopropyl)methyl)-2-(4-(6-((4-cyano-2-fluorobenzyl)oxy)pyridin-2-yl)-3-fluorobenzyl)-1H-benzo[d]imidazole-6-carboxylic acid] | 1.4 nM | 7.83 mL/min/kg | 
7 | COCCn1c(Cc2ccc(-c3cccc(OCc4ccc(C(F)(F)F)nc4OC)n3)cc2F)nc2ccc(C(=O)O)cc21 [Example 458, 2-[[2-fluoro-4-[6-[[2-methoxy-6-(trifluoromethyl)-3-pyridyl]methoxy]-2-pyridyl]phenyl]methyl]-3-(2-methoxyethyl)benzimidazole-5-carboxylic acid] | 2.78 nM | <1.83 mL/min/kg | 
8 | COCCn1c(Cc2ccc(-c3cccc(OCc4ccc(C(F)(F)F)cc4OC)n3)cc2F)nc2ccc(C(=O)O)cc21 [Example 459, 2-(2-fluoro-4-(6-((2-methoxy-4-(trifluoromethyl)benzyl)oxy)pyridin-2-yl)benzyl)-1-(2-methoxyethyl)-1H-benzo[d]imidazole-6-carboxylic acid] | 2.35 nM | <1.83 mL/min/kg | 
9 | COCCn1c(Cc2ccc(-c3cccc(OCc4ccc(C5(F)COC5)cc4)n3)cc2F)nc2ccc(C(=O)O)cc21 [Example 460, 2-(2-fluoro-4-(6-((4-(3-fluorooxetan-3-yl)benzyl)oxy)pyridin-2-yl)benzyl)-1-(2-methoxyethyl)-1H-benzo[d]imidazole-6-carboxylic acid] | 15.7 nM | 12.5 mL/min/kg | 

Source: US11702404B2, “GLP-1R modulating compounds” (priority 2019, dated 2023)
